Assay results taken from patent US8796245B2 (TetraPhase Pharmaceuticals, Inc., priority 2008, dated 2014).
Values after ≈ are worked out from the molar mass of the structure shown.

Assays:
Assay type in all cases: cell-based
[1] = system: E. faecalis EF159 (tet resistant: tetM); test: Minimum inhibitory concentration assay, EF159; conditions: Enterococcus faecalis, read-out: MICs EF159
Protocol: (§1) Frozen bacterial strains were thawed and subcultured onto Mueller Hinton Broth (MHB) or other appropriate media (Streptococcus requires blood and Haemophilus requires hemin and NAD). Following incubation overnight, the strains were subcultured onto Mueller Hinton Agar and again incubated overnight. […] Isolated colonies were selected to prepare a starting inoculum equivalent to a 0.5 McFarland standard. The starting inoculum was diluted 1:125 using MHB for further use. Test compounds were prepared by dilution in sterile water to a final concentration of 5.128 mg/mL. Antibiotics (stored frozen, thawed and used within 3 hours of thawing) and compounds were further diluted to the desired working concentrations.
(§2) The assays were run as follows. Fifty μL of MHB was added to wells 2-12 of a 96-well plate. One hundred […] of appropriately diluted antibiotics was added to well 1. Fifty μL of antibiotics was removed from well 1 and added to well 2 and the contents of well 2 mixed by pipetting up and down five times. Fifty μL of the mixture in well 2 was removed and added to well 3 and mixed as above. Serial dilutions were continued in the same manner through well 12. Fifty μL was removed from well 12 so that all contained 50 μL. Fifty μL of the working inoculum was then added to all test wells. A growth control well was prepared by adding 50 μL of working inoculum and 50 μL of MHB to an empty well. The plates were then incubated at 37° C. overnight, removed from the incubator and each well was read on a plate reading mirror. The lowest concentration (MIC) of test compound that inhibited the growth of the bacteria was recorded.

[2] = system: S. aureus ATCC 13709 (SA100, MSSA, Smith strain); test: Minimum inhibitory concentration assay, SA100; conditions: Staphylococcus aureus; S. aureus ATCC 13709, MSSA Smith strain; read-out: MICs SA100
Protocol: as §1, §2

[3] = system: K. pneumoniae ATCC 13883 (KP109); test: Minimum inhibitory concentration assay, KP109; conditions: Klebsiella pneumoniae, ATCC13883; K. pneumoniae ATCC 13883, wt; read-out: MICs KP109
Protocol: as §1, §2

[4] = system: S. pneumoniae SP160 (tet resistant: tet M); test: Minimum inhibitory concentration assay, SP160; conditions: Streptococcus pneumoniae, read-out: MICs SP160
Protocol: as §1, §2

[5] = system: S. pneumoniae ATCC 49619 (SP106); test: Minimum inhibitory concentration assay, SP106; conditions: Streptococcus pneumoniae, ATCC49619; S. pneumoniae ATCC 49619, wt; read-out: MICs SP106
Protocol: as §1, §2

[6] = system: P. aeruginosa ATCC 27853 (PA111); test: Minimum inhibitory concentration assay, PA111; conditions: Pseudomonas aeruginosa, ATCC27853; P. aeruginosa ATCC 27853, wt; read-out: MICs PA111
Protocol: as §1, §2

[7] = system: S. aureus ATCC 29213 (SA101, MSSA); test: Minimum inhibitory concentration assay, SA101; conditions: Staphylococcus aureus; S. aureus ATCC 29213, MSSA control; read-out: MICs SA101
Protocol: as §1, §2

[8] = system: E. coli ATCC 25922 (EC107); test: Minimum inhibitory concentration assay, EC107; conditions: Escherichia coli, ATCC25922; E. coli ATCC 25922, wt; read-out: MICs EC107
Protocol: as §1, §2

[9] = system: A. baumanii ATCC 19606 (AB110); test: Minimum inhibitory concentration assay, AB110; conditions: Acinetobacter baumannii, ATCC19606; A. baumanii ATCC 19606, wt; read-out: MICs AB110
Protocol: as §1, §2

[10] = system: E. coli EC155 (tet resistant: tetA efflux); test: microbe, parasite or virus in culture; conditions: Escherichia coli; E. coli tet resistant: tetA (efflux); read-out: MICs EC155
Protocol: as §1, §2

[11] = system: S. aureus SA158 (tet resistant: tetK efflux); test: microbe, parasite or virus in culture; conditions: Staphylococcus aureus, read-out: MICs SA158
Protocol: as §1, §2

[12] = system: K. pneumoniae KP153 (tet resistant: tetA efflux); test: microbe, parasite or virus in culture; conditions: Klebsiella pneumoniae, read-out: MICs KP153
Protocol: as §1, §2

[13] = system: E. faecalis ATCC 29212 (EF103); test: Minimum inhibitory concentration assay, EF103; conditions: Enterococcus faecalis, ATCC29212, read-out: MICs EF103
Protocol: as §1, §2

[14] = system: S. aureus SA161 (tet resistant: tet(M) ribosomal protection); test: Minimum inhibitory concentration assay, SA161; conditions: Staphylococcus aureus, read-out: MICs SA161
Protocol: as §1, §2

[15] = system: E. cloacae ATCC 13047 (EC108); test: Minimum inhibitory concentration assay, EC108; conditions: Enterobacter cloacae, ATCC13047; E. cloacae ATCC 13047, wt; read-out: MICs EC108
Protocol: as §1, §2

| Compound | MIC [1] | MIC [2] | MIC [3] | MIC [4] | MIC [5] | MIC [6] | MIC [7] | MIC [8] | MIC [9] | MIC [10] | MIC [11] | MIC [12] | MIC [13] | MIC [14] | MIC [15] |
| --- | --- | --- | --- | --- | --- | --- | --- | --- | --- | --- | --- | --- | --- | --- | --- |
| CN(C)[C@H]1CCN(CC(=O)Nc2cc(F)c3c(c2O)C(=O)C2=C(O)[C@]4(O)C(=O)C(C(N)=O)=C(O)[C@@H](N(C)C)[C@@H]4C[C@@H]2C3)C1 [Compound 38] | 16 µg/mL (≈ 26.6 µM) | 8 µg/mL (≈ 13.3 µM) | > 32 µg/mL | 8 µg/mL (≈ 13.3 µM) | 2 µg/mL (≈ 3.32 µM) | > 32 µg/mL | 8 µg/mL (≈ 13.3 µM) | > 32 µg/mL | > 32 µg/mL | > 32 µg/mL | 32 µg/mL (≈ 53.2 µM) | > 32 µg/mL | 8 µg/mL (≈ 13.3 µM) | 16 µg/mL (≈ 26.6 µM) | > 32 µg/mL |
| CN(C)[C@@H]1C(O)=C(C(N)=O)C(=O)[C@@]2(O)C(O)=C3C(=O)c4c(O)c(NC(=O)CN5CC6CCCC6C5)cc(F)c4C[C@H]3C[C@@H]12 (stereo partly drawn) [Compound 45] | 0.5 µg/mL (≈ 0.835 µM) | 0.5 µg/mL (≈ 0.835 µM) | 2 µg/mL (≈ 3.34 µM) | 0.06 µg/mL (≈ 0.1 µM) | 0.125 µg/mL (≈ 0.209 µM) | > 32 µg/mL | 0.5 µg/mL (≈ 0.835 µM) | 1 µg/mL (≈ 1.67 µM) | 0.06 µg/mL (≈ 0.1 µM) | 2 µg/mL (≈ 3.34 µM) | 0.5 µg/mL (≈ 0.835 µM) | 4 µg/mL (≈ 6.68 µM) | 0.25 µg/mL (≈ 0.418 µM) | 1 µg/mL (≈ 1.67 µM) | 4 µg/mL (≈ 6.68 µM) |
| CCCCCCCNCC(=O)Nc1cc(F)c2c(c1O)C(=O)C1=C(O)[C@]3(O)C(=O)C(C(N)=O)=C(O)[C@@H](N(C)C)[C@@H]3C[C@@H]1C2 [Compound 29] | 2 µg/mL (≈ 3.32 µM) | 4 µg/mL (≈ 6.64 µM) | 8 µg/mL (≈ 13.3 µM) | 1 µg/mL (≈ 1.66 µM) | 1 µg/mL (≈ 1.66 µM) | > 32 µg/mL | 4 µg/mL (≈ 6.64 µM) | 8 µg/mL (≈ 13.3 µM) | 8 µg/mL (≈ 13.3 µM) | 8 µg/mL (≈ 13.3 µM) | 2 µg/mL (≈ 3.32 µM) | 8 µg/mL (≈ 13.3 µM) | 2 µg/mL (≈ 3.32 µM) | 4 µg/mL (≈ 6.64 µM) | 8 µg/mL (≈ 13.3 µM) |
| COC[C@H]1CCCN1CC(=O)Nc1cc(F)c2c(c1O)C(=O)C1=C(O)[C@]3(O)C(=O)C(C(N)=O)=C(O)[C@@H](N(C)C)[C@@H]3C[C@@H]1C2 [Compound 42] | 1 µg/mL (≈ 1.66 µM) | 1 µg/mL (≈ 1.66 µM) | 8 µg/mL (≈ 13.3 µM) | 0.0625 µg/mL (≈ 0.104 µM) | 0.125 µg/mL (≈ 0.207 µM) | > 32 µg/mL | 0.5 µg/mL (≈ 0.83 µM) | 4 µg/mL (≈ 6.64 µM) | 0.5 µg/mL (≈ 0.83 µM) | 16 µg/mL (≈ 26.6 µM) | 1 µg/mL (≈ 1.66 µM) | 16 µg/mL (≈ 26.6 µM) | 0.5 µg/mL (≈ 0.83 µM) | 2 µg/mL (≈ 3.32 µM) | 16 µg/mL (≈ 26.6 µM) |
| CN(C)[C@@H]1C(O)=C(C(N)=O)C(=O)[C@@]2(O)C(O)=C3C(=O)c4c(O)c(NC(=O)CNc5ccccc5)cc(F)c4C[C@H]3C[C@@H]12 [Compound 30] | 2 µg/mL (≈ 3.44 µM) | 1 µg/mL (≈ 1.72 µM) | > 32 µg/mL | 4 µg/mL (≈ 6.89 µM) | 2 µg/mL (≈ 3.44 µM) | > 32 µg/mL | 2 µg/mL (≈ 3.44 µM) | > 32 µg/mL | 8 µg/mL (≈ 13.8 µM) | > 32 µg/mL | 2 µg/mL (≈ 3.44 µM) | > 32 µg/mL | 2 µg/mL (≈ 3.44 µM) | 4 µg/mL (≈ 6.89 µM) | > 32 µg/mL |
| CCCCCCNCC(=O)Nc1cc(F)c2c(c1O)C(=O)C1=C(O)[C@]3(O)C(=O)C(C(N)=O)=C(O)[C@@H](N(C)C)[C@@H]3C[C@@H]1C2 [Compound 14] | 0.25 µg/mL (≈ 0.425 µM) | 0.25 µg/mL (≈ 0.425 µM) | 1 µg/mL (≈ 1.7 µM) | 0.125 µg/mL (≈ 0.212 µM) | 0.03 µg/mL (≈ 0.051 µM) | 16 µg/mL (≈ 27.2 µM) | 0.5 µg/mL (≈ 0.849 µM) | 0.5 µg/mL (≈ 0.849 µM) | 0.25 µg/mL (≈ 0.425 µM) | 4 µg/mL (≈ 6.8 µM) | 0.25 µg/mL (≈ 0.425 µM) | 2 µg/mL (≈ 3.4 µM) | 0.125 µg/mL (≈ 0.212 µM) | 0.5 µg/mL (≈ 0.849 µM) | 2 µg/mL (≈ 3.4 µM) |
